Data: US10545133B2, “Molecular signatures of invasive cancer subpopulations” (The Johns Hopkins University, priority 2013, dated 2020)

What was measured:
Type in all cases: cell-based, mouse
[1] = system: MMTV-PyMT tumor organoids; assay: Oxytocin contractility experiment
Description: FIG. 8. Leader Cells Are Molecularly Distinct from Normal Differentiated Myoepithelial Cells and Coexpress Lumenal Epithelial Markers, Related to FIG. 1 (A-C) Leader cells from MMTV-PyMT tumor organoids stained with K14 and K8 (A), K8, p63, and phalloidin (B), or E-cadherin (Ecad) and phalloidin (C). Arrow in (A), a K14+K8+ cell. Arrow in (B), a K8+p63+ cell. 75% of leaders were K14+K8+(n=21/28) and 34% of leaders were K8+p63+(n=22/65). Blue arrows in (C), Ecadherin staining at cell-cell contacts between leader and follower cells. […] Data presented as mean±sd. n=3 normal and tumor organoids. **p<0.01, *p<0.05; p values determined by two-sided t test. […] (G) The reduction in organoid area calculated in (F) provides a proxy for oxytocin-dependent contractility. Organoids were incubated in oxytocin at the specified doses, and the change in area was determined. […] N=23-30 organoids per condition from 3 independent experiments. *p<0.005, […]; p values determined by two-sided t test. […]
Normal mammary epithelial organoids and MMTV-PyMT tumor organoids were embedded in 3D collagen I matrix and cultured in FGF2 organoid media for 4 days. Normal and tumor organoids were then monitored by DIC time-lapse microscopy collecting images every 5 min. […]

[2] = system: MMTV-PyMT tumor organoids; assay: Mitosis (pH3) and K14 staining of tumor organoids treated with a mitosis inhibitor; conditions: aphidicolin 10 mM from day 0, 3D collagen matrix
Description: FIG. 4. Lumenal Tumor Cells Acquire Markers of Basal Differentiation (A) Mouse mammary tumor organoids grown in 3D collagen matrix stained with K8 and K14. (B) Bar graph of percentage of tumor organoids with K8 or K14 intensity equal to or greater than 1+ as a function of time. K14 and K8 intensity was quantified into 0 (no or few), 1 (intermediate), or 2 (bright) K14 signal. Data are presented as mean±SD. For K14: n=719 organoids from 5-8 mice per day; for K8: n=269 organoids from 3 mice per day. (C) Mammary tumor organoids grown in 3D collagen matrix stained with p63 and DAPI. (D) The percentage of organoids with nuclei positive for p63 was counted. Data are presented as mean±SD. n=114 organoids from 2 mice per day. (E) Invasion was quantified by scoring protrusive morphology of cancer cells in contact with the ECM. Data are presented as mean±SD. n=916 organoids from 4-7 mice per day. (F) Tumor organoids treated from day 0 with DMSO vehicle or a mitosis inhibitor (aphidicolin 10 mM) stained with K14, pH3, and DAPI. […] (H) K14 intensity scored in vehicle or aphidicolin. K14 intensity was quantified into 0 (no or few), 1 (intermediate), or 2 (bright) K14 signal. n=110 organoids from 2 mice per condition. […] All p values were determined by two-sided t test. *p<0.05. **p<0.01. ***p<0.001. […]

K14+ cells = assay: Doxorubicin challenge of mammary carcinoma cells; conditions: challenge with doxorubicin

`CC[C@H](C)[C@@H]1NC(=O)[C@H](Cc2ccc(O)cc2)NC(=O)[C@@H](N)CSSC[C@@H](C(=O)N2CCC[C@H]2C(=O)N[C@@H](CC(C)C)C(=O)NCC(N)=O)NC(=O)[C@H](CC(N)=O)NC(=O)[C@H](CCC(N)=O)NC1=O` [oxytocin] was tested, and the “time of maximal contraction postincubation” value ([1]; normal mammary and MMTV-PyMT tumor organoids, oxytocin at nM concentrations) was 25 min and the “contraction of leader cells in response to oxytocin” value ([1]; oxytocin 5 and 50 nM, 3D collagen I, day 4) was “did not contract”.
For `C[C@@]1(CO)[C@H](O)CC[C@@]2(C)[C@H]1CC[C@H]1C[C@@H]3C[C@@]12CC[C@]3(O)CO` [aphidicolin], the “increase in K14+ cells (K14 intensity)” value [2] was “did not prevent an increase in K14+ cells” and the “mitosis (pH3+ nuclei per tumor organoid)” value [2] was “blocked mitosis completely”.
In the case of `COc1cccc2c1C(=O)c1c(O)c3c(c(O)c1C2=O)C[C@@](O)(C(=O)CO)C[C@@H]3O[C@H]1C[C@H](N)[C@H](O)[C@H](C)O1` [doxorubicin], the “representation of K14+ cells among the intrinsically resistant cells” value (K14+ cells) is reported as “strongly overrepresented”.
